Experimental data reported in the supplement of paper PMC10307832.

Key:
Experiment in all cases: relative viability (nuclei count vs DMSO), 5 days (fraction); higher = more cells survive
[1] = compound: CN1CCN(CC1)C2=CC(=C(C=C2)NC3=NC(=C(S3)C(=O)C4=C(C=CC=C4Cl)Cl)N)OC [XMD14-99] + CCNC(=O)c1noc(-c2cc(C(C)C)c(O)cc2O)c1-c1ccc(CN2CCOCC2)cc1 [Luminespib] (partner 0.01 µM)
How it was run: (§1)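 Relative viability divides the nuclei count in treated wells by that in vehicle wells. Lung cancer cell lines were seeded in 1536-well plates, dosed by pin tool the next day, and fixed and stained after 5 days in one step with final 0.05% Triton X-100, 1% formaldehyde and 1 ug/ml Hoechst. Dosing was a single drug or a fixed anchor-drug dose plus five library-drug doses (not always all listed) in √10 steps, and values are medians of duplicate plates imaged at 4×.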

[2] = compound: CN1CCN(CC1)C2=CC(=C(C=C2)NC3=NC(=C(S3)C(=O)C4=C(C=CC=C4Cl)Cl)N)OC [XMD14-99] + O=C(c1cc(Cc2n[nH]c(=O)c3ccccc23)ccc1F)N1CCN(C(=O)C2CC2)CC1 [Olaparib] (partner 8 µM)
How it was run: as §1

[3] = compound: N[C@@H]1CCCN(c2c(/C=C3\SC(=O)NC3=O)cccc2-c2ccccc2)C1 [AZD1208] + CS(=O)(=O)N1CCN(Cc2cc3nc(-c4cccc5[nH]ncc45)nc(N4CCOCC4)c3s2)CC1 [Pictilisib] (partner 1 µM)
How it was run: as §1

[4] = compound: N[C@@H]1CCCN(c2c(/C=C3\SC(=O)NC3=O)cccc2-c2ccccc2)C1 [AZD1208] + NC(=O)Nc1cc(-c2cccc(F)c2)sc1C(=O)N[C@H]1CCCNC1 [AZD7762] (partner 0.2 µM)
How it was run: as §1

Row | Cell Line | relative viability ([1]; first compound 0.08 µM) | relative viability ([1]; first compound 0.8 µM) | relative viability ([1]; first compound 2.53 µM) | relative viability ([1]; first compound 8 µM) | relative viability ([2]; first compound 0.08 µM) | relative viability ([2]; first compound 0.8 µM) | relative viability ([2]; first compound 2.53 µM) | relative viability ([2]; first compound 8 µM) | relative viability ([3]; first compound 0.08 µM) | relative viability ([3]; first compound 0.253 µM) | relative viability ([3]; first compound 2.53 µM) | relative viability ([3]; first compound 8 µM) | relative viability ([4]; first compound 0.08 µM) | relative viability ([4]; first compound 0.253 µM) | relative viability ([4]; first compound 0.8 µM) | relative viability ([4]; first compound 2.53 µM) | relative viability ([4]; first compound 8 µM) | relative viability ([3]; first compound 0.8 µM)
1 | LCLC-97TM1 | 0.843 | 0.747 | 0.728 | 0.516 | 0.415 | 0.351 | 0.35 | 0.209 | 0.164 | 0.175 | 0.121 | 0.145 | 0.283 | 0.591 | 0.334 | 0.386 | 0.306 | –
2 | NCI-H647 | 0.322 | 0.233 | 0.23 | 0.0995 | 0.512 | 0.561 | 0.746 | 0.38 | 0.463 | 0.371 | 0.339 | 0.364 | 0.638 | 0.547 | 0.466 | 0.378 | 0.497 | 0.37
3 | NCI-H838 | 0.28 | 0.293 | 0.239 | 0.235 | 0.736 | 0.754 | 0.637 | 0.45 | 0.374 | 0.427 | 0.378 | 0.366 | 0.931 | 1.02 | 0.887 | 0.993 | 1.01 | 0.343
4 | H3255 | 0.958 | 0.934 | 0.781 | 0.614 | 0.577 | 0.507 | 0.491 | 0.343 | 0.402 | 0.44 | 0.364 | 0.451 | 1.01 | 0.992 | 0.898 | 0.912 | 0.845 | 0.408
